Values of other authors as cited in article PMC12238723, “Phase I Clinical Trial of CVL218, a Novel PARP1/2 Inhibitor, in Patients with Advanced Solid Tumors” (MedComm, 2025).

Parameters: method as in PMID 36283983
Conditions: cited from earlier work

In the case of CNCc1ccc(-c2cc3cc(F)cc(C(N)=O)c3o2)cc1.Cl [CVL218], the “blood–brain barrier crossing” value is given as “readily crosses the blood–brain barrier”.
